In series [1] the test system is superoxide dismutase (SOD2). Kind of series: qRT-PCR relative mRNA expression, SOD2. It counts as cell-based, human. The note with it: G-361, 48 h incubation, RQ = 2^-ΔΔCt, mean ± SD, control 1.001. As to the method:
[…] cell line was seeded into 6-well plates in the concentration of 4 × 10^5 cells/well. Thiosemicarbazide derivatives were added when 70–80% of confluence was achieved. After 48 h of incubation, 1 mL of TRIzol™ Reagent (Invitrogen, Carlsbad, CA, USA) was added to lyse the cells. Lysates were centrifuged for 5 min at 12,000× g at 4 °C, and clear supernatants were processed according to the manufacturer’s protocol. Then, reverse transcription was performed using NG dART RT-PCR kit (EURx, Gdańsk, Poland) and a Mastercycler gradient thermocycler (Eppendorf, Hamburg, Germany). Thermal profile of the reaction: 10 min at 25 °C, then 50 min at 50 °C, and 5 min at 85 °C. mRNA levels of the genes DHODH, 18SRNA, and BACT were assessed using TaqMan Fast Advanced Master Mix (ThermoFisher, Waltham, MA, USA). mRNA levels of the following genes: CAT, SOD2,18SRNA TBP were assessed using PowerUp SYBR Green Master Mix (ThermoFisher, Waltham, MA, USA) in a 7500 Fast Real-Time PCR System (ThermoFisher, Waltham, MA, USA). Thermal profile of the reactions performed: 20 s at 95 °C, followed by 40 cycles of 3 s at 95 °C and 30 s at 60 °C. The reaction was carried out in triplicates. Relative expression of the tested genes was determined by qRT-PCR and the ΔΔCt method. The statistical analysis was performed with RQ values (relative quantification, RQ = 2^−∆ΔCt).
Background: Real-time PCR tracks product formation cycle by cycle.

The subject of a further series is G-361 melanoma. Kind of series: MTT cytotoxicity, G-361 melanoma. It counts as cell-based, human. The note with it: for cytotoxic to melanoma cells (MTT test): G-361, concentration range used; for IC50: MTT test, 24 h treatment, G-361 melanoma. As to the method:
Biological studies were performed on human malignant melanoma G-361 (ATCC CRL-1424) cell lines and human fibroblast BJ (ATCC® CRL-2522™) cell lines purchased from the American Type Culture Collection (ATCC, Manassas, VA USA). The G-361 cell lines were maintained in McCoy’s medium (Corning, NY, USA), and the fibroblast BJ cell line was cultured in EMEM (Corning, NY, USA). All media were supplemented with 10% heat-inactivated fetal bovine serum (PAN-Biotech, Aidenbach, Germany), 100 U/mL penicillin, 100 μg/mL streptomycin and 0.25 μg/mL amphotericin B (Sigma-Aldrich, St. Louis, MO, USA). Cultures were maintained at 37 °C in a humidified atmosphere of 95% air and 5% CO2. The experiments were performed using cells from passage 5 to 10.
The cytotoxicity of the new compounds was evaluated against both the G-361 and BJ cell lines. Cells were seeded into 96-well plates at a density of 3 × 10^4 cells/well and 2 × 10^4 cells/well. After 24 h of incubation, when 70–80% confluence was reached, the culture medium was removed and replaced with the fresh one containing the tested compounds in the concentration range of 10, 25, 50, 75, 100, 125 and 250 μM. Cells were cultured at 37 °C in the presence of 5% air with CO2 for another 24 h. The cytotoxicity of the test compounds was evaluated by the MTT colorimetric assay, based on the ability of live cells to convert yellow soluble tetrazolium salts (3-[4,5-dimethylthiazol-2-yl]- 2,5-diphenyltetrazolium bromide, MTT) to purple insoluble formazan by cellular dehydrogenase. After 24 h of incubation with solutions of the test compounds, 4 mg/mL MTT solution (Thermo Scientific, Waltham, MA, USA) was added to the cell cultures and incubation was continued for 4 h at 37 °C. The MTT medium was then removed, and the resulting crystals were dissolved in 200 µL of DMSO. The solution was measured for absorbance at 570 nm using a Power Wave xs spectrophotometric plate reader, BioTek Instruments (Winooski, VT, USA). The experiment was performed three times with three replicates for each concentration. IC50 values were determined using the AAT Bioquest IC50 calculator.

The nature of a further series: RP-HPLC lipophilicity. It counts as physicochemical. The note with it: for logkW (chromatographic lipophilicity parameter): Kinetex C18, methanol-water 55-80%, extrapolated to 0% methanol; for -S HPLC (slope of linear equation): Table S3. As to the method:
RP-HPLC analysis was performed using a Merck-Hitachi LaChrom Elite System (Merck, Darmstadt, Germany) with diode array detector L-2455, thermostat L-2300, pump L-2130 and autosampler L-2200 with a Kinetex C18 (5µm; 150 × 4,6mm) chromatographic column (Phenomenex, Torrance, USA) as the stationary phase. The mobile phase consisted of methanol (Merck, Darmstadt, Germany) and water (double-distilled), which was degassed by use of the built-in membrane degasser. Subsequently, 5 μL methanolic solution (0.1%; m/v) of the selected samples was applied to the chromatographic column by use of a Hitachi L-2200 autosampler (LaChrom Elite, Hitachi-Merck, Darmstadt, Germany). The analysis was performed with a flow rate of 0.7 mL min^−1 in isocratic mode using various concentrations of organic modifier (methanol) in binary polar mobile phases; percentages of methanol in water were 55–80% (%, v/v) and changed by 5% per step. Chromatograms were detected at 254 nm and the temperature of the column was 25 °C. All experiments were repeated in triplicate and the final results were taken to be the arithmetic means. Dead time was measured using uracil (Calbiochem. Merck, Darmstadt, Germany).

The next series in a line: RP-TLC lipophilicity. The note with it: for RMW (chromatographic lipophilicity parameter): RP-18 plates, methanol-water 65-95%, extrapolated to 0% methanol; for -S TLC (slope of linear equation): Table S3. The series is classed as physicochemical. As to the method: RP-TLC analysis was performed using RP-18 TLC silica gel 60 F254 plates (10 × 20 cm, Merck, Darmstadt, Germany) with a DS-II chromatographic horizontal chamber (CHROMDES, Lublin, Poland). The mobile phase consisted of methanol (POCH, Gliwice, Poland) and water with the following concentrations of methanol: 65–95% (%, v/v), with a concentration change every 5%. After drying, the spots were observed under a UV lamp with a wavelength of 254 nm.

In general, IC50 refers to the point on the concentration scale where inhibition reaches its midpoint. For `O=C(COc1ccc(Cl)cc1Cl)NNC(=S)Nc1cccc2ccccc12` [PK9, 1-(2,4-dichlorophenoxy)acetyl-4-(1-naphtyl)thiosemicarbazide], in series [1], the “Relative mRNA expression level SOD2 (RQ)” value was found to be 1.293 ± 0.100. In the series with G-361 melanoma, the “cytotoxic to melanoma cells (MTT test)” value is reported as “cytotoxic” and it took 113 ± 4 µM to reach half-maximal inhibition (IC50). Further, in “RP-HPLC lipophilicity”, the “logkW (chromatographic lipophilicity parameter)” value (“logkW” for short) is reported as 4.6425 and the “-S HPLC (slope of linear equation)” value was found to be 6.1619. In addition, in “RP-TLC lipophilicity”, the “RMW (chromatographic lipophilicity parameter)” value (from here on “RMW”) is on record as 3.1398 and the “-S TLC (slope of linear equation)” value turned out to be 3.8345.
On to `O=C(COc1ccc(Cl)cc1Cl)NNC(=S)Nc1ccccc1I` [PK6, 1-(2,4-dichlorophenoxy)acetyl-4-(2-iodophenyl)thiosemicarbazide], for which the “Relative mRNA expression level SOD2 (RQ)” value in series [1] was 1.249 ± 0.080. Further, in the series with G-361 melanoma, the “cytotoxic to melanoma cells (MTT test)” value is “cytotoxic” and the IC50 was 112 ± 4.76 µM. For the same molecule, in “RP-HPLC lipophilicity”, the “logkW” value was 4.1439 and the “-S HPLC (slope of linear equation)” value is 5.4574. In addition, in the series “RP-TLC lipophilicity”, the “RMW” value is recorded as 2.8125 and the “-S TLC (slope of linear equation)” value is given as 3.3436.
Turning to `CSc1ccc(NC(=S)NNC(=O)COc2ccc(Cl)cc2Cl)cc1` [PK2, 1-(2,4-dichlorophenoxy)acetyl-4-(4-metylothiophenyl)thiosemicarbazide], the “Relative mRNA expression level SOD2 (RQ)” value in series [1] is reported as 1.486 ± 0.056. In the series on G-361 melanoma, the “cytotoxic to melanoma cells (MTT test)” value is listed as “cytotoxic”. Besides, in the series with G-361 melanoma (Homo sapiens), the IC50 is 108 ± 6 µM. Besides, in the series “RP-HPLC lipophilicity”, the “logkW” value is listed as 4.7804 and the “-S HPLC (slope of linear equation)” value is reported as 6.3581. Also, in the series “RP-TLC lipophilicity”, the “RMW” value is 3.2058 and the “-S TLC (slope of linear equation)” value worked out at 3.8253.

The record behind these values is PMC8961551, “Potential Anticancer Agents against Melanoma Cells Based on an As-Synthesized Thiosemicarbazide Derivative” (Biomolecules, 2022).
